Assays:
Experiment in all cases: relative viability (nuclei count vs DMSO), 5 days (fraction); higher = more cells survive
Zosuquidar + Trametinib = compound: O[C@@H](COc1cccc2ncccc12)CN1CCN([C@@H]2c3ccccc3[C@@H]3[C@H](c4ccccc42)C3(F)F)CC1 [Zosuquidar] + CC(=O)Nc1cccc(-n2c(=O)n(C3CC3)c(=O)c3c(Nc4ccc(I)cc4F)n(C)c(=O)c(C)c32)c1 [Trametinib] (partner 0.02 µM)
In short: (§1)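 Relative viability is defined as nuclei in treated wells over nuclei in vehicle wells. Duplicate plates were run and medians reported. Lung cancer cell lines in 1536-well plates were dosed by pin tool one day after seeding, with one drug or with a fixed anchor-drug dose plus five library-drug doses (not always all listed) in √10 steps, and nuclei were counted after 5 days.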

[1] = compound: COc1cc2nccc(Oc3ccc(NC(=O)C4(C(=O)Nc5ccc(F)cc5)CC4)cc3)c2cc1OC [Cabozantinib] + CC(C)C[C@H](NC(=O)[C@H](Cc1ccccc1)NC(=O)c1cnccn1)B(O)O [Bortezomib] (partner 0.002 µM)
In short: as §1

Zosuquidar + Pictilisib = compound: O[C@@H](COc1cccc2ncccc12)CN1CCN([C@@H]2c3ccccc3[C@@H]3[C@H](c4ccccc42)C3(F)F)CC1 [Zosuquidar] + CS(=O)(=O)N1CCN(Cc2cc3nc(-c4cccc5[nH]ncc45)nc(N4CCOCC4)c3s2)CC1 [Pictilisib] (partner 1 µM)
In short: as §1

[2] = compound: COc1cc2nccc(Oc3ccc(NC(=O)C4(C(=O)Nc5ccc(F)cc5)CC4)cc3)c2cc1OC [Cabozantinib] + C[C@@H](Oc1cc(-c2cnn(C3CCNCC3)c2)cnc1N)c1c(Cl)ccc(F)c1Cl [Crizotinib] (partner 1 µM)
In short: as §1

## UMC-11
Zosuquidar + Trametinib; first compound 0.01 µM
  relative viability: 0.668
Zosuquidar + Trametinib; first compound 0.03162 µM
  relative viability: 0.758
Zosuquidar + Trametinib; first compound 0.1 µM
  relative viability: 0.623
Zosuquidar + Trametinib; first compound 0.3162 µM
  relative viability: 0.833
Zosuquidar + Trametinib; first compound 1 µM
  relative viability: 0.606
[1]; first compound 0.02 µM
  relative viability: 0.669
[1]; first compound 0.06325 µM
  relative viability: 0.921
[1]; first compound 0.2 µM
  relative viability: 0.709
[1]; first compound 0.6325 µM
  relative viability: 0.649
[1]; first compound 2 µM
  relative viability: 0.815
Zosuquidar + Pictilisib; first compound 0.01 µM
  relative viability: 0.663
Zosuquidar + Pictilisib; first compound 0.03162 µM
  relative viability: 0.92
Zosuquidar + Pictilisib; first compound 0.1 µM
  relative viability: 0.707
Zosuquidar + Pictilisib; first compound 0.3162 µM
  relative viability: 0.881
Zosuquidar + Pictilisib; first compound 1 µM
  relative viability: 0.777
[2]; first compound 0.02 µM
  relative viability: 0.609
[2]; first compound 0.06325 µM
  relative viability: 0.592
[2]; first compound 0.2 µM
  relative viability: 0.717
[2]; first compound 0.6325 µM
  relative viability: 0.668
[2]; first compound 2 µM
  relative viability: 0.578

Reference: the supplement of paper PMC10307832
